Activity calls are given as the source filed them. No cut-off for these calls is given here.
Assays:
Histone deacetylase 1 = Histone deacetylase 1 (Homo sapiens, UniProt Q13547); assay: Inhibition of HDAC1 (unknown origin) using p53 residues 379 to 382 [RHKK(Ac)] as fluorogenic substrate assessed as residual activity at 1 x 10^-5M (reference value: 98.06%); conditions: dose 1.0 10^-5M
Histone deacetylase 2 [1] = target: T1, Histone deacetylase 2 (Homo sapiens, UniProt Q92769); assay: Inhibition of HDAC2 (unknown origin) assessed as residual activity at 1 x 10^-5M (reference value: 99.81%); conditions: dose 1.0 10^-5M
[2] = target: T2, Polyamine deacetylase HDAC10 (Homo sapiens) (UniProt Q969S8); assay: Inhibition of HDAC10 (unknown origin) assessed as residual activity at 1 x 10^-5M (reference value: 101.54%); conditions: dose 1.0 10^-5M
T2 sequence (whole entry): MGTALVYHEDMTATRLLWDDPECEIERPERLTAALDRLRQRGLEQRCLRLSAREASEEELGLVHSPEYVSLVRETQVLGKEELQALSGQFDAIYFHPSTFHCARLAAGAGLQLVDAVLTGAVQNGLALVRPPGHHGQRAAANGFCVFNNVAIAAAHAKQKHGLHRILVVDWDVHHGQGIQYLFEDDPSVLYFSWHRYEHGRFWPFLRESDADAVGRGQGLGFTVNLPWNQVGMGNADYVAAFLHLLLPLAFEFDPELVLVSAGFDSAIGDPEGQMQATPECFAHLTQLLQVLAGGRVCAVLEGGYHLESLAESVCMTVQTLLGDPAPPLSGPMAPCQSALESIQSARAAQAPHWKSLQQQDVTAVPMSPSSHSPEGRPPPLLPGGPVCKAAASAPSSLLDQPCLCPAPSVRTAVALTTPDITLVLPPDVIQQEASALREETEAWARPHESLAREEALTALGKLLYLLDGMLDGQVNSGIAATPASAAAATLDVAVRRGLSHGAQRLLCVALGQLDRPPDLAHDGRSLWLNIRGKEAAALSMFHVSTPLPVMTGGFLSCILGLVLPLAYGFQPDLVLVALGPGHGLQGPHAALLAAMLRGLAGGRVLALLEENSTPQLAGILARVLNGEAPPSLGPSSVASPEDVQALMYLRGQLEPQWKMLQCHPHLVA

Histone deacetylase 2 [3] = target: T1, Histone deacetylase 2; assay: Inhibition of HDAC2 (unknown origin) assessed as residual activity at 4.57 x 10^-9M (reference value: 99.81%); conditions: dose 4.57 10^-9M
[4] = target: Histone deacetylase 4 (Homo sapiens) (UniProt P56524); assay: Inhibition of HDAC4 (unknown origin) assessed as residual activity at 5.08 x 10^-10M (reference value: 98.90%); conditions: dose 5.08 10^-10M
[5] = target: Histone deacetylase 5 (Homo sapiens) (UniProt Q9UQL6); assay: Inhibition of HDAC5 (unknown origin) assessed as residual activity at 3.33 x 10^-6M (reference value: 100%); conditions: dose 3.33 10^-6M
[6] = target: Histone deacetylase 5 (Homo sapiens) (UniProt Q9UQL6); assay: Inhibition of HDAC5 (unknown origin) assessed as residual activity at 1.1 x 10^-6M (reference value: 100%); conditions: dose 1.1 10^-6M
[7] = target: T3, Histone deacetylase 7 (Homo sapiens) (UniProt Q8WUI4); assay: Inhibition of HDAC7 (unknown origin) assessed as residual activity at 1.23 x 10^-7M (reference value: 102.66%); conditions: dose 1.23 10^-7M
T3 sequence (whole entry): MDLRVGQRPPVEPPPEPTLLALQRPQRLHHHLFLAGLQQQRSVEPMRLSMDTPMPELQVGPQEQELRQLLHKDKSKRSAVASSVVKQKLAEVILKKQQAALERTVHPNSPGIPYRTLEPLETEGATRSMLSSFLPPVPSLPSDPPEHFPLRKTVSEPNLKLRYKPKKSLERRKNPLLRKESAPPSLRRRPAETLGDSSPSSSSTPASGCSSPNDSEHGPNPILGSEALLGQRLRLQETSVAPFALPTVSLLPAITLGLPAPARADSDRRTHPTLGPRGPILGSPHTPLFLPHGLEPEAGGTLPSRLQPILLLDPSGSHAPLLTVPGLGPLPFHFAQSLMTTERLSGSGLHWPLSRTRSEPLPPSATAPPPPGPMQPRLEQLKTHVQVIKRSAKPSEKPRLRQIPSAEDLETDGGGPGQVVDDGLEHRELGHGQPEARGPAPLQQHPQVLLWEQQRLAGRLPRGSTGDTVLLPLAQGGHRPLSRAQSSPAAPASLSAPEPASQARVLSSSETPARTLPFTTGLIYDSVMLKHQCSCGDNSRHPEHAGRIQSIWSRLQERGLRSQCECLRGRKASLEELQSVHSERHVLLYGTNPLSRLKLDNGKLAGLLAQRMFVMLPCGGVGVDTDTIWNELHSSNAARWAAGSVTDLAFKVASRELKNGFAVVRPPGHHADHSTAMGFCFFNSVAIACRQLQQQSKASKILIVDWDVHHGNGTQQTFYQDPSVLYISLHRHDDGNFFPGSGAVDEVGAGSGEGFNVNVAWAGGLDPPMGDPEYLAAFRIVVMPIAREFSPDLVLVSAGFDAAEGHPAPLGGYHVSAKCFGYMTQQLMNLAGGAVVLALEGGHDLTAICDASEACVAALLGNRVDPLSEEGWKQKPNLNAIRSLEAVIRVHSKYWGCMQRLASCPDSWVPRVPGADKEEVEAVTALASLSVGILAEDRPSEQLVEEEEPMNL

[8] = target: Histone deacetylase 9 (Homo sapiens) (UniProt Q9UKV0); assay: Inhibition of HDAC9 (unknown origin) assessed as residual activity at 4.57 x 10^-9M (reference value: 97.55%); conditions: dose 4.57 10^-9M
[9] = target: Histone deacetylase 9 (Homo sapiens) (UniProt Q9UKV0); assay: Inhibition of HDAC9 (unknown origin) assessed as residual activity at 1.52 x 10^-9M (reference value: 97.55%); conditions: dose 1.52 10^-9M
[10] = target: T2, Polyamine deacetylase HDAC10 (Homo sapiens); assay: Inhibition of HDAC10 (unknown origin) assessed as residual activity at 5.08 x 10^-10M (reference value: 101.54%); conditions: dose 5.08 10^-10M
HL-60 [11] = assay: Downregulation of HDAC2 protein expression in human HL-60 cells at 0.5 to 1 times IC50 by Western blot analysis; assay type: functional, cell-based
HL-60 [12] = assay: Induction of cell cycle arrest in G0/G1 phase in human HL-60 cells assessed as downregulation of p-AKT protein expression at 0.5 to 1 times IC50 by Western blot analysis; assay type: functional, cell-based

Histone deacetylase 5 (Homo sapiens), sequence (Q9UQL6 whole entry): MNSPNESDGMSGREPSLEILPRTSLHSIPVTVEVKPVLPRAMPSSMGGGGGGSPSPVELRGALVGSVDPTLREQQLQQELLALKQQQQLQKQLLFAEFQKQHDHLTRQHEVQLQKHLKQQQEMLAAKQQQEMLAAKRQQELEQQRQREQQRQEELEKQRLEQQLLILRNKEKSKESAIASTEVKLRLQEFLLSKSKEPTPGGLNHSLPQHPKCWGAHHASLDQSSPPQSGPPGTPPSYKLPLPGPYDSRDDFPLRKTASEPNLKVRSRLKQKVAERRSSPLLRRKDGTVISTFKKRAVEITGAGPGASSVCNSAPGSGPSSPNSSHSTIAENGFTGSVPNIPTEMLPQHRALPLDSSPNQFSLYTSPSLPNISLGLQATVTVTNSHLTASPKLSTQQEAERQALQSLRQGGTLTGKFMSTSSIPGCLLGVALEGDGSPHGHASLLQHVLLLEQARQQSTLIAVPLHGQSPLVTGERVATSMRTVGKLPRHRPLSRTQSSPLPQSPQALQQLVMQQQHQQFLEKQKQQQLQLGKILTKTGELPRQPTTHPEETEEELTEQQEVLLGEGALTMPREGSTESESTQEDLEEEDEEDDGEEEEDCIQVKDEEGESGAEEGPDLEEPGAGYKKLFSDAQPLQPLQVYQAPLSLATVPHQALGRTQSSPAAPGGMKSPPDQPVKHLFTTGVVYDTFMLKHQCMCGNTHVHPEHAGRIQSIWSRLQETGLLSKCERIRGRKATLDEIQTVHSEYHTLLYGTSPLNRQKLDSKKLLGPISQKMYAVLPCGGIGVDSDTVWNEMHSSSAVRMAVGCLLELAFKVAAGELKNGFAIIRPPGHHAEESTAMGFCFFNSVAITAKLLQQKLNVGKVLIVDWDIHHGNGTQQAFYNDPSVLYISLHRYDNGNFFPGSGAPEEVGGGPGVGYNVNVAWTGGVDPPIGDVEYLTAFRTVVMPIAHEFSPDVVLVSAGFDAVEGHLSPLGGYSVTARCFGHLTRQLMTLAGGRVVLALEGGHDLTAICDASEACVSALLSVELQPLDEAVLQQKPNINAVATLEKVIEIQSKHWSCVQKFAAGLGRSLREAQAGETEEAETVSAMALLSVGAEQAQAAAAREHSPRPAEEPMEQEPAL
Histone deacetylase 9 (Homo sapiens), sequence (Q9UKV0 whole entry): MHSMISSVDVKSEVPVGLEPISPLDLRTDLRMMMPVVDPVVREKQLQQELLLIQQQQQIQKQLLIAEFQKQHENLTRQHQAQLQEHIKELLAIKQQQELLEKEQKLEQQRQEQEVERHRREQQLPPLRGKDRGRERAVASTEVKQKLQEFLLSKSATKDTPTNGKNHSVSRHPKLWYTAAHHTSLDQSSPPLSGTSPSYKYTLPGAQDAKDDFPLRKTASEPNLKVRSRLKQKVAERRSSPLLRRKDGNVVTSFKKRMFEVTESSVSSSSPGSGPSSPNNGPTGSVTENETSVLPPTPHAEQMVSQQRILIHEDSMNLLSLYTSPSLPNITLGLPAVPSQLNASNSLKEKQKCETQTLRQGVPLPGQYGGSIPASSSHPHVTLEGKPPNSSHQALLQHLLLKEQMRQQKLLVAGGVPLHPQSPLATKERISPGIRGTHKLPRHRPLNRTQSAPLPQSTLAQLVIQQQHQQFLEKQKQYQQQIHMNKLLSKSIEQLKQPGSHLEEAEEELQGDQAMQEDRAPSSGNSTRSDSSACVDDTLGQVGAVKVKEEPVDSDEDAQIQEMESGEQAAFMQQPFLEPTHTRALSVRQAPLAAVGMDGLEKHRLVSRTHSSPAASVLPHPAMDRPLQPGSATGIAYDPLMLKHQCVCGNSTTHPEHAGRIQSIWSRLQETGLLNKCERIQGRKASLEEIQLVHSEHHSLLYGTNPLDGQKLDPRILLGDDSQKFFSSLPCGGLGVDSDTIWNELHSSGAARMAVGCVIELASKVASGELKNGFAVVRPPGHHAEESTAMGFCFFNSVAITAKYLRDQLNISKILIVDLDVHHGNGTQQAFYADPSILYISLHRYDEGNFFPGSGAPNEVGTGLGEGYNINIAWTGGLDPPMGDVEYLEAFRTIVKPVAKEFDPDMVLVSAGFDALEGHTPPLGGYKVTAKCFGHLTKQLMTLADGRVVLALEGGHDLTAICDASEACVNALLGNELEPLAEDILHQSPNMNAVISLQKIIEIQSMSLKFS
T1 sequence (Q92769 whole entry): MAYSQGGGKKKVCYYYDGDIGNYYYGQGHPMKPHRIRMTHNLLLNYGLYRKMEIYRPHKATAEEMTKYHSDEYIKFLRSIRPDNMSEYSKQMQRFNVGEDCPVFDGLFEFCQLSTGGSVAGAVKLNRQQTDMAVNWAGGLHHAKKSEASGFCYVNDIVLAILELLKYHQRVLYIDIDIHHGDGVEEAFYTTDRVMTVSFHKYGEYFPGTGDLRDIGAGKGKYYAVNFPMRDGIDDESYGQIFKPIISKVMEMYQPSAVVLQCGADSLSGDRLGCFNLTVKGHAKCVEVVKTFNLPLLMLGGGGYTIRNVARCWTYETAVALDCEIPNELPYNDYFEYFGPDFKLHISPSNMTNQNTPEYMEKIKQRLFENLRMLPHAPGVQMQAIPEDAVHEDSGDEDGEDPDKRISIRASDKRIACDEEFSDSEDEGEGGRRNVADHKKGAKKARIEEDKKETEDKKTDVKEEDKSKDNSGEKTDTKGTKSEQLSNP
Histone deacetylase 4 (Homo sapiens), sequence (P56524 whole entry): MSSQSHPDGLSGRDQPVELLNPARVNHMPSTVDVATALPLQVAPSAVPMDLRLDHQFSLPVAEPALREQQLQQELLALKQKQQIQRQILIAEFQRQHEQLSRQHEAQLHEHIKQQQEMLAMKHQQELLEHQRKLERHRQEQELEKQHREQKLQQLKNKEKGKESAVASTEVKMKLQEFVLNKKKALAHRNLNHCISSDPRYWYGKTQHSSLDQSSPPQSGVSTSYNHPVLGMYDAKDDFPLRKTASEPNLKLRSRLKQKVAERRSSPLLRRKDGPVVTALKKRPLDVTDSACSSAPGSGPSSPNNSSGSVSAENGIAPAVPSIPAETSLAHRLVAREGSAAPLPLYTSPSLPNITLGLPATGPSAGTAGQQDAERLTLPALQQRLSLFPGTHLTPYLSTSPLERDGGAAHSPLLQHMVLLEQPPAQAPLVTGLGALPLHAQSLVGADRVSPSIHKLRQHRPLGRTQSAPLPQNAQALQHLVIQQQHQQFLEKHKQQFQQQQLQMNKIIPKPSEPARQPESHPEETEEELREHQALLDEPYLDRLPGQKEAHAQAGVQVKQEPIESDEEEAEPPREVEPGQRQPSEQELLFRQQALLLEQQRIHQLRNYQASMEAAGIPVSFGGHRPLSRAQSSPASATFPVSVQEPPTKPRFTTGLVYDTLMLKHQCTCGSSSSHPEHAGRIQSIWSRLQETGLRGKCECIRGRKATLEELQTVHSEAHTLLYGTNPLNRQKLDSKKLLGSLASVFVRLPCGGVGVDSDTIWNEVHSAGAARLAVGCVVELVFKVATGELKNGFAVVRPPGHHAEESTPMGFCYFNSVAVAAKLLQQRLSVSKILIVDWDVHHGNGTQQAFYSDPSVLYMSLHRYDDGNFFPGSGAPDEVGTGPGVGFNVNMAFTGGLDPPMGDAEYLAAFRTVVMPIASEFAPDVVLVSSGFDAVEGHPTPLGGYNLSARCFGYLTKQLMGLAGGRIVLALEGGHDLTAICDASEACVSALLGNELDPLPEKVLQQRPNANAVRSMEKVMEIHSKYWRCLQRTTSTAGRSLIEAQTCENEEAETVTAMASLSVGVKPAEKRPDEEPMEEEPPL
Histone deacetylase 1, sequence (Q13547 whole entry, the tested form may be a part): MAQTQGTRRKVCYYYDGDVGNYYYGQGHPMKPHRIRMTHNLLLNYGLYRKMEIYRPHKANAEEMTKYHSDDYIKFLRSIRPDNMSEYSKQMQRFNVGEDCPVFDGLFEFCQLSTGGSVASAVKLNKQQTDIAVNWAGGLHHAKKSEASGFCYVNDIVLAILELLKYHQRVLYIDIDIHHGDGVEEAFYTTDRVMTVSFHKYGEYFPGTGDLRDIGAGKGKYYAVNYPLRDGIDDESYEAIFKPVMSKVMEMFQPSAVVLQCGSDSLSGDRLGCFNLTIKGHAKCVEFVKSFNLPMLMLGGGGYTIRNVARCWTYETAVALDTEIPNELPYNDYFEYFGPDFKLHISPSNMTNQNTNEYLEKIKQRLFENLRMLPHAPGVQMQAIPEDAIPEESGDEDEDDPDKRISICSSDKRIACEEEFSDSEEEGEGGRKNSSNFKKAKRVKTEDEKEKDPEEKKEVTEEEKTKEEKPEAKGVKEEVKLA

Activity (Histone deacetylase 1): 12.3%
Activity (Histone deacetylase 2 [1]): 7.52%
Activity [2]: 72.2%
Activity (Histone deacetylase 2 [3]): 89.2%
Activity [4]: 96.7%
Activity [5]: 85.7%
Activity [6]: 93%
Activity [7]: 89.1%
Activity [8]: 82.9%
Activity [9]: 97.8%
Activity [10]: 101%
Structure (SMILES): NC(=O)c1cccc2[nH]c(-c3ccc(NCc4ccc(C(=O)Nc5ccccc5N)cc4)cc3)nc12
Activity (HL-60 [11]): Active
Activity (HL-60 [12]): Active

— ChEMBL document CHEMBL5550160, “Leveraging a rationally designed veliparib-based anilide eliciting anti-leukemic effects for the design of pH-responsive polymer nanoformulation” (Eur J Med Chem, 2024)
